According to publication PMC3145320 (Bioorganic & medicinal chemistry, 2011):

Key:
μ-opiate receptor [1] = molecular target: T1, μ-opiate receptor (Homo sapiens, UniProt P35372); assay: biochemical; conditions: for Kb: Ke μ-Antagonism
κ-opioid receptor = κ-opioid receptor (Homo sapiens, UniProt P41145); assay: [35S]GTP-γ-S binding, κ-antagonism; assay type: biochemical; conditions: n=3; for Kb: Ke κ-Antagonism
μ-opiate receptor [2] = molecular target: T1, μ-opiate receptor; assay type: binding; conditions: read-out: Ki μ
κ-opiate receptor = κ-opiate receptor (Homo sapiens, UniProt P41145); assay: [3H] opioid receptor binding, κ; conditions: read-out: Ki κ; CHO cells stably transfected, expressing κ-opiate receptor; n=3
Sequence of κ-opiate receptor (P41145 whole entry): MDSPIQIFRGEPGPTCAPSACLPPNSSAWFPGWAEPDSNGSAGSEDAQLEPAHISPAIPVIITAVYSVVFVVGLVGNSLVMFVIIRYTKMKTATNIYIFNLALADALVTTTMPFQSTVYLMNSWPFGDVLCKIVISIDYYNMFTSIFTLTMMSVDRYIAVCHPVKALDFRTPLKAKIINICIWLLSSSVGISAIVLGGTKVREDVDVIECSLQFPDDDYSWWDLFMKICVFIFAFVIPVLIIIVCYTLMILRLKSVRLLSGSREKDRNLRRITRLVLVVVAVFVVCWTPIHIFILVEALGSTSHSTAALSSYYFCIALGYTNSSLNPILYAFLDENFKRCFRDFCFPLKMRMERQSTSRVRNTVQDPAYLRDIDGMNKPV

Sequence of κ-opioid receptor (P41145 whole entry): as above
T1 sequence (P35372 whole entry): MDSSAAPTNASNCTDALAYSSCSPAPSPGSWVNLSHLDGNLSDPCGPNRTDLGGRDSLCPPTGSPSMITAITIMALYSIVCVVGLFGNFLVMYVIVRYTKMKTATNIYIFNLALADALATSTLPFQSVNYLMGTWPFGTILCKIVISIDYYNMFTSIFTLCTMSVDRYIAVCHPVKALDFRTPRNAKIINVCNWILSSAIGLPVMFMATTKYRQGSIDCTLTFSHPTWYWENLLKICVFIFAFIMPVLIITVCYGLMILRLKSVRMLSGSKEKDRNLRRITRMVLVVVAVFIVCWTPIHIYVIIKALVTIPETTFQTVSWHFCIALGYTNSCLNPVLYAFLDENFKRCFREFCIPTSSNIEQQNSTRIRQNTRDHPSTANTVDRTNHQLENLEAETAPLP

Row | Molecule | Kb (μ-opiate receptor [1]) [nM] | Kb (κ-opioid receptor) [nM] | Ke μ-Antagonism (μ-opiate receptor [1]) [nM] | Ki (μ-opiate receptor [2]) [nM] | Ki (κ-opiate receptor) [nM] | Ke κ-Antagonism (κ-opioid receptor) [nM]
1 | Oc1cccc2c1O[C@@H]1CC[C@@H]3C[C@]21CCN3CCc1ccccc1 (racemic) [rac 5, rac-(4R,6aR,11bR)-2,3,4,5,6,6a-hexahydro-3-phenethyl-1H-4,11b-methanobenzofuro[3,2-d]azocin-8-ol] | 274 ± 49 | 163 ± 29 |  |  |  | 
2 | Oc1ccc2c(c1)[C@]13CCN(CCc4ccccc4)[C@H](CC[C@H]1O2)C3 (racemic) [rac 10, rac-(4R,6aR,11bR)-2,3,4,5,6,6a-hexahydro-3-phenethyl-1H-4,11b-methanobenzofuro[3,2-d]azocin-10-ol] |  | 46 ± 9 |  |  |  | 
3 | Oc1cccc2c1O[C@H]1CC[C@@H]3C[C@]21CCN3CCc1ccccc1 (stereo in doubt) [Compound 19b, (4R,6aS,11bR)-2,3,4,5,6,6a-Hexahydro-3-phenethyl-1H-4,11b-methanobenzofuro[3,2-d]azocine-8-ol] | 31 ± 6 | 22 ± 6 |  |  |  | 
4 | Oc1ccc2c(c1)[C@]13CCN(CCc4ccccc4)[C@H](CC[C@@H]1O2)C3 [Compound 16a, (4R,6aS,11bR)-2,3,4,5,6,6a-Hexahydro-3-phenethyl-1H-4,11b-methanobenzofuro[3,2-d]azocine-10-ol] | 47 ± 9 | 100 ± 3 |  |  |  | 
5 | Oc1ccc2c(c1)[C@@]13CCN(CCc4ccccc4)[C@@H](CC[C@H]1O2)C3 [Compound 16b, (4S,6aR,11bS)-2,3,4,5,6,6a-Hexahydro-3-phenethyl-1H-4,11b-methanobenzofuro[3,2-d]azocine-10-ol] | 227 ± 33 | 103 ± 17 |  |  |  | 
6 | (4S,6aR,11bS)-2,3,4,5,6,6a-hexahydro-3-phenethyl-1H-4,11b-methanobenzofuro[3,2-d]azocine-8-ol [Compound 19a] |  |  | 328 ± 67 | 384 ± 38 | 367 ± 19 | 761 ± 191
